Experimental data published in PubChem BioAssay AID1963847 (Molecular Pharmacology Branch, DTP, NCI, 2024).

Test system: 415267-285-R-J2-PDC complex spheroid viability
Test: Anticancer human tumor 415267-285-R-J2-PDC patient-derived breast carcinoma cell line growth inhibition [POLQ]
Conditions: for IC50: curve of first compound; for viability, T/C: stronger effect = lower value
How it was run: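 PDC + HUVEC + MSC complex spheroids; POLQ inhibitors ± partner drugs; top conc. at/near clinical Cmax, else 10 microM (SN-38 1 microM), half-log dilutions; 37 degrees C, 5% CO2.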

[1] = second compound 0.0316 µM, first compound 0.0316 µM
[2] = second compound 0.0316 µM, first compound 0.1 µM
[3] = second compound 0.0316 µM, first compound 0.316 µM
[4] = second compound 0.0316 µM, first compound 1 µM
[5] = second compound 0.0316 µM, first compound 3.16 µM
[6] = second compound 0.0316 µM, first compound 10 µM
[7] = second compound 0.1 µM, first compound 0.0316 µM
[8] = second compound 0.1 µM, first compound 0.1 µM
[9] = second compound 0.1 µM, first compound 0.316 µM
[10] = second compound 0.1 µM, first compound 1 µM
[11] = second compound 0.1 µM, first compound 3.16 µM
[12] = second compound 0.1 µM, first compound 10 µM
[13] = second compound 0.316 µM, first compound 0.0316 µM
[14] = second compound 0.316 µM, first compound 0.1 µM
[15] = second compound 0.316 µM, first compound 0.316 µM
[16] = second compound 0.316 µM, first compound 1 µM
[17] = second compound 0.316 µM, first compound 3.16 µM
[18] = second compound 0.316 µM, first compound 10 µM
[19] = second compound 1 µM, first compound 0.0316 µM
[20] = second compound 1 µM, first compound 0.1 µM
[21] = second compound 1 µM, first compound 0.316 µM
[22] = second compound 1 µM, first compound 1 µM
[23] = second compound 1 µM, first compound 3.16 µM
[24] = second compound 1 µM, first compound 10 µM
[25] = second compound 3.16 µM, first compound 0.0316 µM
[26] = second compound 3.16 µM, first compound 0.1 µM
[27] = second compound 3.16 µM, first compound 0.316 µM
[28] = second compound 3.16 µM, first compound 1 µM
[29] = second compound 3.16 µM, first compound 3.16 µM
[30] = second compound 3.16 µM, first compound 10 µM
[31] = second compound 10 µM, first compound 0.0316 µM
[32] = second compound 10 µM, first compound 0.1 µM
[33] = second compound 10 µM, first compound 0.316 µM
[34] = second compound 10 µM, first compound 1 µM
[35] = second compound 10 µM, first compound 3.16 µM
[36] = second compound 10 µM, first compound 10 µM
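Further: spheroids exposed to compounds for one week before readout.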
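Wherever viability, T/C is given: luminescence used as stand-in measure of viable cells; 100% = DMSO vehicle control viability.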

Q: `CC(=O)O[C@H]1C(=O)[C@@]2(C)[C@H]([C@H](OC(=O)c3ccccc3)[C@]3(O)C[C@H](OC(=O)[C@H](O)[C@@H](NC(=O)c4ccccc4)c4ccccc4)C(C)=C1C3(C)C)[C@]1(OC(C)=O)CO[C@@H]1C[C@@H]2O` + Nc1ccc(C#CCN(C(=O)Cc2ncc(C(F)(F)F)cc2C(F)(F)F)c2ccc(F)cc2)nn1 was tested. Which IC50 (second compound 0.0316 µM) did it give?
A: Its IC50 is under 0.00949 µM.

Q: And the IC50 (second compound 0.1 µM)?
A: The IC50 was under 0.00949 µM.

Q: What about the IC50 (second compound 0.316 µM) of the same compound?
A: The IC50 was under 0.00949 µM.

Q: What about the IC50 (second compound 1 µM) of the same compound?
A: Its IC50 is under 0.00949 µM.

Q: What about the IC50 (second compound 3.16 µM) of the same compound?
A: The IC50 was under 0.00949 µM.

Q: And the IC50 (second compound 10 µM)?
A: The IC50 was under 0.00949 µM.

Q: And the viability, T/C (second compound 0.0316 µM, first compound 0.00949 µM)?
A: Its viability, T/C is 16.4%.

Q: And the viability, T/C (second compound 0.0316 µM, first compound 0.03 µM)?
A: Its viability, T/C is 11.2%.

Q: And the viability, T/C (second compound 0.0316 µM, first compound 0.0949 µM)?
A: Its viability, T/C is 7.8%.

Q: What about the viability, T/C (second compound 0.0316 µM, first compound 0.3 µM) of the same compound?
A: Its viability, T/C is 12.3%.

Q: What about the viability, T/C (second compound 0.0316 µM, first compound 0.949 µM) of the same compound?
A: The viability, T/C was 7.65%.

Q: And the viability, T/C (second compound 0.0316 µM, first compound 3 µM)?
A: The viability, T/C was 9.67%.

Q: What about the viability, T/C (second compound 0.1 µM, first compound 0.00949 µM) of the same compound?
A: The viability, T/C was 28.2%.

Q: What about the viability, T/C (second compound 0.1 µM, first compound 0.03 µM) of the same compound?
A: Its viability, T/C is 10.1%.

Q: And the viability, T/C (second compound 0.1 µM, first compound 0.0949 µM)?
A: Its viability, T/C is 7.84%.

Q: What about the viability, T/C (second compound 0.1 µM, first compound 0.3 µM) of the same compound?
A: Its viability, T/C is 8.82%.

Q: What about the viability, T/C (second compound 0.1 µM, first compound 0.949 µM) of the same compound?
A: Its viability, T/C is 5.94%.

Q: What about the viability, T/C (second compound 0.1 µM, first compound 3 µM) of the same compound?
A: The viability, T/C was 7.04%.

Q: And the viability, T/C (second compound 0.316 µM, first compound 0.00949 µM)?
A: Its viability, T/C is 25.4%.

Q: And the viability, T/C (second compound 0.316 µM, first compound 0.03 µM)?
A: Its viability, T/C is 10.4%.

Q: And the viability, T/C (second compound 0.316 µM, first compound 0.0949 µM)?
A: Its viability, T/C is 8.11%.

Q: What about the viability, T/C (second compound 0.316 µM, first compound 0.3 µM) of the same compound?
A: Its viability, T/C is 6.83%.

Q: And the viability, T/C (second compound 0.316 µM, first compound 0.949 µM)?
A: The viability, T/C was 6.61%.

Q: What about the viability, T/C (second compound 0.316 µM, first compound 3 µM) of the same compound?
A: The viability, T/C was 9.16%.

Q: What about the viability, T/C (second compound 1 µM, first compound 0.00949 µM) of the same compound?
A: Its viability, T/C is 17.4%.

Q: What about the viability, T/C (second compound 1 µM, first compound 0.03 µM) of the same compound?
A: Its viability, T/C is 9.17%.

Q: And the viability, T/C (second compound 1 µM, first compound 0.0949 µM)?
A: Its viability, T/C is 6.64%.

Q: What about the viability, T/C (second compound 1 µM, first compound 0.3 µM) of the same compound?
A: The viability, T/C was 8.77%.

Q: What about the viability, T/C (second compound 1 µM, first compound 0.949 µM) of the same compound?
A: The viability, T/C was 7.65%.

Q: And the viability, T/C (second compound 1 µM, first compound 3 µM)?
A: The viability, T/C was 7.96%.

Q: And the viability, T/C (second compound 3.16 µM, first compound 0.00949 µM)?
A: The viability, T/C was 14.3%.

Q: What about the viability, T/C (second compound 3.16 µM, first compound 0.03 µM) of the same compound?
A: The viability, T/C was 10%.

Q: And the viability, T/C (second compound 3.16 µM, first compound 0.0949 µM)?
A: Its viability, T/C is 8.75%.

Q: And the viability, T/C (second compound 3.16 µM, first compound 0.3 µM)?
A: The viability, T/C was 6.53%.

Q: And the viability, T/C (second compound 3.16 µM, first compound 0.949 µM)?
A: Its viability, T/C is 7.79%.

Q: What about the viability, T/C (second compound 3.16 µM, first compound 3 µM) of the same compound?
A: Its viability, T/C is 7.72%.

Q: What about the viability, T/C (second compound 10 µM, first compound 0.00949 µM) of the same compound?
A: Its viability, T/C is 13.3%.

Q: And the viability, T/C (second compound 10 µM, first compound 0.03 µM)?
A: Its viability, T/C is 9.57%.

Q: And the viability, T/C (second compound 10 µM, first compound 0.0949 µM)?
A: Its viability, T/C is 8.39%.

Q: What about the viability, T/C (second compound 10 µM, first compound 0.3 µM) of the same compound?
A: Its viability, T/C is 9.61%.

Q: And the viability, T/C (second compound 10 µM, first compound 0.949 µM)?
A: The viability, T/C was 8.58%.

Q: What about the viability, T/C (second compound 10 µM, first compound 3 µM) of the same compound?
A: Its viability, T/C is 8.25%.

Q: Which results are given for `COc1cc2cc(C(=O)CCC(=O)O)sc2cc1OC` + Nc1ccc(C#CCN(C(=O)Cc2ncc(C(F)(F)F)cc2C(F)(F)F)c2ccc(F)cc2)nn1?
A: IC50 (second compound 0.0316 µM): > 10 µM; IC50 (second compound 0.1 µM): > 10 µM; IC50 (second compound 0.316 µM): > 10 µM; IC50 (second compound 1 µM): > 10 µM; IC50 (second compound 3.16 µM): > 10 µM; IC50 (second compound 10 µM): > 10 µM; viability, T/C [1]: 108%; viability, T/C [2]: 95.4%; viability, T/C [3]: 93.7%; viability, T/C [4]: 97.3%; viability, T/C [5]: 93.8%; viability, T/C [6]: 97.3%; viability, T/C [7]: 111%; viability, T/C [8]: 105%; viability, T/C [9]: 94.2%; viability, T/C [10]: 98.2%; viability, T/C [11]: 92.5%; viability, T/C [12]: 95.1%; viability, T/C [13]: 111%; viability, T/C [14]: 103%; viability, T/C [15]: 91.8%; viability, T/C [16]: 89.9%; viability, T/C [17]: 98.9%; viability, T/C [18]: 85.9%; viability, T/C [19]: 103%; viability, T/C [20]: 88.9%; viability, T/C [21]: 96.6%; viability, T/C [22]: 102%; viability, T/C [23]: 96.5%; viability, T/C [24]: 91.2%; viability, T/C [25]: 105%; viability, T/C [26]: 92%; viability, T/C [27]: 101%; viability, T/C [28]: 98.9%; viability, T/C [29]: 94.3%; viability, T/C [30]: 109%; viability, T/C [31]: 101%; viability, T/C [32]: 97.4%; viability, T/C [33]: 100%; viability, T/C [34]: 106%; viability, T/C [35]: 97.9%; viability, T/C [36]: 96.5%

Q: Which results are given for `CC(C)n1c(=O)n(C)c2cnc3cc(F)c(-c4ccc(OCCCN5CCCCC5)nc4)cc3c21` + COC1C(OC(N)=O)C(O)C(Oc2ccc3c(O)c(NC(=O)c4ccc(O)c(CC=C(C)C)c4)c(=O)oc3c2C)OC1(C)C?
A: IC50 (second compound 0.0316 µM): > 10 µM; IC50 (second compound 0.1 µM): > 10 µM; IC50 (second compound 0.316 µM): > 10 µM; IC50 (second compound 1 µM): > 10 µM; IC50 (second compound 3.16 µM): > 10 µM; IC50 (second compound 10 µM): > 10 µM; viability, T/C [1]: 97.5%; viability, T/C [2]: 97.6%; viability, T/C [3]: 95.6%; viability, T/C [4]: 94.1%; viability, T/C [5]: 101%; viability, T/C [6]: 99.2%; viability, T/C [7]: 89.8%; viability, T/C [8]: 93.6%; viability, T/C [9]: 107%; viability, T/C [10]: 104%; viability, T/C [11]: 103%; viability, T/C [12]: 95.3%; viability, T/C [13]: 96.8%; viability, T/C [14]: 95.8%; viability, T/C [15]: 104%; viability, T/C [16]: 110%; viability, T/C [17]: 112%; viability, T/C [18]: 89.5%; viability, T/C [19]: 99.6%; viability, T/C [20]: 103%; viability, T/C [21]: 91.2%; viability, T/C [22]: 102%; viability, T/C [23]: 95.5%; viability, T/C [24]: 97%; viability, T/C [25]: 107%; viability, T/C [26]: 91.4%; viability, T/C [27]: 89%; viability, T/C [28]: 98.2%; viability, T/C [29]: 107%; viability, T/C [30]: 98.8%; viability, T/C [31]: 101%; viability, T/C [32]: 99.5%; viability, T/C [33]: 93.5%; viability, T/C [34]: 114%; viability, T/C [35]: 98.4%; viability, T/C [36]: 82.5%
